In patent EP0249390A2, “Synthetic peptides related to the HIV glycoprotein gp 120” (Pert, Candace B., priority 1986, dated 1987) one finds activity data, which are given here for one substance.

The assay in a line: activity of peptide, test not specified.

Consider “CYS-THR-THR-ASN-TYR-THR-CYS (CTTNYTC; printed: CYS-THR-THR-ASN-TYR-THR-CYS) [seven amino acid peptide]”, for which the outcome was active.
